We go through 3 compounds from paper PMC9721426, “Novel piperine-carboximidamide hybrids: design, synthesis, and antiproliferative activity via a multi-targeted inhibitory pathway” (Journal of Enzyme Inhibition and Medicinal Chemistry, 2022).

A short description of data set [1]: MTT cell viability assay on normal mammary epithelial cells. Type of data set: cell-based. Conditions: human, MCF-10A normal cells, 4 days incubation. How it is done:
A human mammary gland epithelial (MCF-10A) normal cell line was used to perform the viability test. The viability of compounds VIa-k was determined using the MTT assay after 4 days of incubation with MCF-10A cells[26]^,[27].
The MTT assay was used to assess how the synthetic compounds impacted the viability of mammary epithelial cells (MCF-10A)[26]^,[27]. Appendix A. […]
4.2. Biological evaluation
4.2.1. Cytotoxic activity using MTT Assay and evaluation of IC50
MTT assay was carried out to study the effect of compounds on mammary epithelial cells (MCF-10A)26,27. The medium in which cells were propagated contained Dulbecco's modified Eagle's medium (DMEM)/ Ham's F-12 medium (1:1) supplemented with epidermal growth factor (20 ng/mL), hydrocortisone (500 ng/mL), insulin (10 μg/mL), 2 mM glutamine and 10% foetal calf serum. After every 2-3 days, the cells were passaged using trypsin ethylenediamine tetra acetic acid (EDTA). The cells were seeded at a density of 10^4 cells mL-1 in flat-bottomed culture plates containing 96 wells each. […]
A single compound was designated with four wells followed by incubation of plates for 96h at 37°C. After incubation, medium was removed completely from the plates followed by addition of MTT (0.4 mg/mL in medium) to each well and subsequent incubation of plates for 3h. MTT (along with the medium) was removed and DMSO (150μL) was added to each well of the culture plates, followed by vortexing and subsequent measurement of absorbance (at 540 nm) using microplate reader. […]
(In general: Tetrazolium assays rely on reduction of a dye to a coloured formazan, in cell work by metabolically active cells.)

Data set [2] has as its system Panc-1 (pancreatic cancer cell line). In words: Antiproliferative MTT assay, Panc-1. Type of data set: cell-based. The note with it: Homo sapiens; Panc-1, MTT; read-out: Antiproliferative activity IC50 ± SEM, Panc-1. How it is done:
The MTT assay was performed using various cell lines in accordance with previously reported procedures[28]^,[29] to investigate the antiproliferative potential of VIa-k. Refer to Appendix A. […]
added (in 200 μL medium to yield a final concentration of 0.1% v/v) to the wells of plates. A single compound was designated with four wells followed by incubation of […]
After incubation, medium was removed completely from the plates followed by addition of MTT (0.4 mg/mL in medium) to each well and subsequent incubation of plates for 3h. MTT (along with the medium) was removed and DMSO (150μL) was added to each well of the culture plates, followed by vortexing and subsequent measurement of absorbance (at 540 nm) using microplate reader. The data are shown as percentage inhibition of proliferation in comparison with controls containing 4.2.1.2. Assay for antiproliferative effect […]
The percentage cytotoxicity of compounds was calculated using the following […]
Where ATC= Absorbance of treated cells and AC= Absorbance of control. […]
used as positive control in the assay. […]

The mark [3] stands for this setting: MCF-10A mammary epithelial cells.

As a reminder, the melting point is the temperature of the solid-liquid transition. In general, viability refers to the share of living cells, or the viability signal relative to a control. Lower therefore signals more harm to the cells. For orientation: IC50 means the concentration at which inhibition is half-maximal. Compound `NC(=NOC(=O)/C=C/C=C/c1ccc2c(c1)OCO2)c1ccc(Br)cc1` [VIc, N'-{[(2E,4E)-5-(2H-1,3-Benzodioxol-5-yl)penta-2,4-dienoyl]oxy}-4-bromobenzene-1-carboximidamide] gave a melting point of 159 to 161 °C. The compound also returned a viability at 4 days, 50 µM in data set [1] (setting [3]) of 86%. In addition, the 50% inhibitory concentration (IC50) in data set [2] was found to be 53 ± 5 nM.

In the case of `N/C(=N/OC(=O)/C=C/C=C/c1ccc2c(c1)OCO2)c1ccc2c(c1)OCO2` [VIk], the viability at 4 days, 50 µM in data set [1] (MCF-10A normal mammary gland epithelial cells) turned out to be 89%. The IC50 in data set [2] worked out at 36 ± 3 nM.

As for `NC(=NOC(=O)/C=C/C=C/c1ccc2c(c1)OCO2)c1ccccc1Cl` [VIf, N'-{[(2E,4E)-5-(2H-1,3-benzodioxol-5-yl)penta-2,4-dienoyl]oxy}-2-chlorobenzene-1-carboximidamide], the melting point was 165 to 167 °C. The viability at 4 days, 50 µM in data set [1] (setting [3]) was determined as 90%. Moreover, in data set [2], the IC50 was found to be 45 ± 4 nM.
